{
  "source": "patent US20260083722A1",
  "about": "“BIFUNCTIONAL DEGRADERS COMPRISING ELECTROPHILIC PROTACS THAT ENGAGE DCAF1 AND PHARMACEUTICAL COMPOSITIONS COMPRISING THE SAME” (THE SCRIPPS RESEARCH INSTITUTE, priority 2022, published 2026)",
  "molecular_target": "T1, HA-FKBP12 (Homo sapiens, UniProt P62942)",
  "T1 construct": "expressed in transfected cells; host or cells: HEK293T",
  "T1 sequence (P62942 whole entry)": "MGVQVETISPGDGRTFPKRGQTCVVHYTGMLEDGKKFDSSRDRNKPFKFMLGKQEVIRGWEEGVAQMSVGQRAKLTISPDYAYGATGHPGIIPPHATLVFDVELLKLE",
  "experiment": "ubiquitination of immunoprecipitated HA-FKBP12 in HEK293T cells",
  "format": "cell-based",
  "method": "(A) Left, western blots showing effects of YT47R and YT47S on the immunoprecipitation (IP) of FLAG-DCAF1-WT or FLAG-DCAF1-C1113A with HA-FKBP12 in HEK293T cells co-expressing these proteins. Cells were treated with YT47R or YT47S (5 μM) for 2 h in the presence of MG132 (10 μM) prior to lysis and IP with an anti-HA antibody and western blotting for the indicated proteins (DCAF1, FKBP12, and ubiquitinated protein). Right, bar graphs quantifying DCAF1 (top) and ubiquitination (Ub) (bottom) in the indicated IP groups. (B) Left, western blots showing effects of YT47R and YT47S on the IP of endogenous DCAF1 with HA-FKBP12 in HEK293T cells expressing HA-FKBP12. […] Right, bar graph quantifying DCAF1 in the indicated IP groups. […] Statistical significance was calculated with unpaired two-tailed Student's t-tests comparing YT41R/YT47R- and DMSO-treated cells. **P<0.01, ****P<0.0001. (C) MS-ABPP quantification of IA-DTB labeling of the indicated cysteines in DCAF1 from FLAG-DCAF1-WT-expressing HEK293T cells treated with the indicated concentrations of YT47R (3 h) relative to cells treated with DMSO. […] Statistical significance was calculated with unpaired two-tailed Student's t-tests comparing compound to DMSO treated cells. *P<0.1. […]",
  "data": [
    {"compound": "C=CC(=O)N1C[C@H](c2ccc(C(=O)NCCOCCOCCOCCNC(=O)COc3cccc([C@@H](CCc4ccc(OC)c(OC)c4)OC(=O)[C@@H]4CCCCN4C(=O)C(=O)C(C)(C)CC)c3)cc2)[C@@H]1C(=O)Nc1cccc2cccnc12", "note": "[YT47R]", "values": [
      {"measurement": "polyubiquitination of immunoprecipitated HA-FKBP12", "setting": "DCAF1-WT-expressing cells, 5 μM, 2 h, MG132", "value": "robust polyubiquitination"},
      {"measurement": "FKBP12 ubiquitination", "setting": "HEK293T cells that did not express exogenous DCAF1, versus YT47S", "value": "increased FKBP12 ubiquitination"}
    ]}
  ]
}
